US11739350B2 (priority 2018, dated 2023)

System: HPAFII tumours
Parameters: species or system SCID mice
Conditions: mouse, in vivo, ip

Substance GSK126 has a tumor volumes of 1609.3 mm^3.
